The text below walks through data of patent US11286268B1, “EIF4E-inhibiting compounds and methods” (EFFECTOR THERAPEUTICS, INC., priority 2019, dated 2022).

In the assay the target is recombinant eIF4E (Homo sapiens (Human), UniProt P06730). Nature of the assay: Fluorescence polarization competition assay for eIF4E binding potency. The essentials:
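Protein and fluorescent cap-analog probe (EDA-m7GDP-ATTO-550) were mixed first for 5 min, after which serially diluted compound was added to final 75 nM eIF4E, 20 nM probe, 1% DMSO. Reactions equilibrated 30 min at room temperature before polarization was measured.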

Where [1] appears, read: fluorescence polarization competition, 75 nM recombinant eIF4E, 20 nM EDA-m7GDP-ATTO-550, IC50 class, read-out: elF4E FP.
Where [2] appears, read: inhibition of eIF4E/EDA-m7GDP-ATTO-550 binding by 50%, Table 4B calculated values, read-out: IC50.
[3] abbreviates: inhibition of eIF4E/EDA-m7GDP-ATTO-550 binding, calculated IC50 values, Table 4B, read-out: IC50.

Where two headings read alike, the source gives them in different places.

Sequence of recombinant eIF4E (P06730 whole entry): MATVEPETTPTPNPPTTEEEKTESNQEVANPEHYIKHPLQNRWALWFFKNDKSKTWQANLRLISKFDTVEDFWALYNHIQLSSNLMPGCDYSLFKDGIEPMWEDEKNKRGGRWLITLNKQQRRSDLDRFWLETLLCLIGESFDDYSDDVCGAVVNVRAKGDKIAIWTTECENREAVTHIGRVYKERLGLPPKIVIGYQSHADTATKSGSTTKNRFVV

For the compound `Cc1nc2cnc(N(C)C3CCN(CC(F)(F)C(C)(F)F)CC3)c(C#N)c2c(=O)n1CC#Cc1ccc(Cl)cc1-c1ccnc2c(C(=O)O)csc12` [compound 1107], the IC50 under setting [1] was less than 50 nM and the IC50 under setting [2] was 10.5 nM.
With `Cc1cc(-c2cc(Cl)ccc2OCCn2c(C)nc3cc(C(F)(F)F)c(-c4ccnc(C)c4F)c(C#N)c3c2=O)c2scc(C(=O)O)c2n1` [compound 472], the IC50 reads like this: under setting [1], less than 50 nM; under setting [2], 23.6 nM.
For `N#Cc1cccc2nc(C(F)F)n(CCOc3ccc(Cl)cc3-c3ccnc(C(=O)O)c3)c(=O)c12` [compound 166], the IC50 reads like this: under setting [1], less than 50 nM; under setting [2], 35 nM.
With `Cc1nc2cnc(N(C)C3CCN(C4CC(F)(F)C4)CC3)c(C#N)c2c(=O)n1CC#Cc1ccc(Cl)cc1-c1ccnc2c(C(=O)NS(=O)(=O)c3ccccn3)csc12` [compound 1109], the IC50 under setting [1] was less than 50 nM and the IC50 under setting [2] was 13.4 nM.
For `O=C(O)c1cccc(-c2cc(Cl)ccc2OCCn2cnc3cnc(Sc4ccccc4)cc3c2=O)c1` [compound 26], the IC50 was 50 to 1000 nM under setting [1] and 919 nM under setting [2].
In the case of `Cc1cc2cc(C(F)(F)F)c(N3CCN(C)CC3)c(C#N)c2c(=O)n1CCOc1ccc(Cl)cc1-c1ccnc2c(C(=O)O)csc12` [compound 1240], the IC50 was less than 50 nM under setting [1] and 15.5 nM under setting [3].
For `COc1cc2nc(C)n(CCOc3ccc(Cl)cc3-c3cc(C)nc4c(C(=O)O)c(C)sc34)c(=O)c2c(C#N)c1N1CCN(C)CC1` [compound 1208], the IC50 reads like this: under setting [1], less than 50 nM; under setting [3], 48.9 nM.
Take `Cc1cc(-c2cc(Cl)ccc2OCCn2c(C)nc3cc(F)c(CN4CCN(C)CC4)c(C#N)c3c2=O)c2scc(C(=O)O)c2n1` [compound 366]: the IC50 runs as follows: under setting [1], less than 50 nM; under setting [2], 6.66 nM.
With `Cc1nc2c(C#N)nc(C#N)cc2c(=O)n1CCOc1ccc(Cl)cc1-c1cccc(C(=O)O)c1` [compound 1997], the IC50 under setting [3] is 77.5 nM.
As for `Cc1cc(-c2cc(Cl)ccc2OCCn2c(C)nc3cc4c(c(C#N)c3c2=O)CCN(C)C4)c2scc(C(=O)O)c2n1` [compound 335], the IC50 under setting [1] lay within 50 to 1000 nM.
For `O=C(O)c1cccc(-c2cc(Cl)ccc2OCCn2ccc3ncncc3c2=O)c1` [compound 14], the IC50 runs as follows: under setting [1], greater than 1000 nM; under setting [2], greater than 3000 nM.
For `Cc1nc2cc(C(F)(F)F)c(N3CCN(C)CC3)c(C#N)c2c(=O)n1CCOc1ccc(Cl)cc1-c1ccccc1` [compound 833] the same measures were 50 to 1000 nM and 111 nM.
For the compound `Cc1nc2cc(C(F)(F)F)cc(C#N)c2c(=O)n1CCOc1ccc(C#N)cc1-c1ccnc2c(C(=O)O)csc12` [compound 287], the IC50 by setting is: under setting [1], less than 50 nM; under setting [2], 47.8 nM.
For the compound `Cc1nc2cnc(N(C)[C@H]3CC[C@H](CN(C)CC(C)(F)F)CC3)c(C#N)c2c(=O)n1CC#Cc1ccc(Cl)cc1-c1ccnc2c(C(=O)O)csc12` [compound 1583], the IC50 under setting [3] is 58.2 nM.
As to `CCc1cc(-c2cc(Cl)ccc2OCCn2c(C)nc3cc(C(F)(F)F)c(N4CCN(C)CC4)nc3c2=O)c2scc(C(=O)O)c2n1` [compound 1084], the IC50 runs as follows: under setting [1], less than 50 nM; under setting [2], 15 nM.
`Cc1nc2cnc(N(C)C3CCN(CC(F)(F)c4ccccc4)CC3)c(C#N)c2c(=O)n1CC#Cc1ccc(Cl)cc1-c1ccnc2c(C(=O)O)csc12` [compound 1555]: the IC50 under setting [3] was 23.9 nM.
On to `CNC(=O)c1cc2c(=O)n(CCOc3ccc(Cl)cc3-c3cccc(C(=O)O)c3)cnc2cn1` [compound 132], for which the IC50 under setting [1] is 50 to 1000 nM and the IC50 under setting [2] is 624 nM.
With `Cc1nc2cc(Cl)c(C#N)c(C#N)c2c(=O)n1CCOc1ccc(Cl)cc1-c1ccnc2c(C(=O)O)csc12` [compound 1949], the IC50 under setting [3] was 21.6 nM.
Regarding `N#Cc1cccc2ncn(CCOc3ccc(Cl)cc3-c3cccc(C(=O)O)c3)c(=O)c12` [compound 73], the IC50 was 50 to 1000 nM under setting [1] and 83.2 nM under setting [2].
For `Cc1nc2cc(C(F)(F)F)cc(C#N)c2c(=O)n1CCOc1ccc(Cl)cc1-c1ccnc2c(C(F)(F)C(=O)O)csc12` [compound 295] the same measures were 50 to 1000 nM and 167 nM.
With `Cc1nc2cc(C(F)(F)F)cc(C#N)c2c(=O)n1CCOc1ccc(Cl)cc1-c1ccnc2c1CCC2C(=O)O` (centres unmarked) [compound 496], the IC50 is greater than 1000 nM under setting [1] and 1060 nM under setting [2].
Consider `Cc1nc2cc(C#N)c(C(F)F)c(C#N)c2c(=O)n1CCOc1ccc(Cl)cc1-c1cccc(C(=O)O)c1` [compound 63], for which the IC50 under setting [1] is less than 50 nM and the IC50 under setting [2] was 25.8 nM.
Regarding `Cc1nc2cnc(C3=C(C(C)(C)C)CN(C)C3)c(C#N)c2c(=O)n1CCOc1ccc(Cl)cc1-c1ccnc2c(C(=O)O)csc12` [compound 1332], the IC50 under setting [3] was 34.5 nM.
`Cc1nc2cnc(N3CCC(N(C)C4CC(F)(F)C4)CC3)c(C#N)c2c(=O)n1CC#Cc1ccc(Cl)cc1-c1ccnc2c(C(=O)O)csc12` [compound 1592]: under setting [3], the IC50 is 20.3 nM.
The same measure, in the same setting: with `CCc1cc(-c2cc(Cl)ccc2OCCn2c(C)nc3cc(C(F)(F)F)c(CC4CCN(C)CC4)c(C#N)c3c2=O)c2scc(C(=O)O)c2n1` [compound 1275] the figure was 58.7 nM; with `Cc1nc2ccc(CN(C)C)c(C#N)c2c(=O)n1CCOc1ccc(Cl)cc1-c1ccnc2c(C(=O)O)csc12` [compound 1936], 37.4 nM.
Turning to `Cc1nc2cc(Cl)c(C(F)F)c(C#N)c2c(=O)n1CCOc1ccc(Cl)cc1-c1ccnc2c(C(=O)NS(C)(=O)=O)csc12` [compound 520], the IC50 under setting [1] was less than 50 nM and the IC50 under setting [2] is 18.3 nM.
Consider `Cc1nc2cnc(N(C)C3CCN(C4COC4)CC3)c(C#N)c2c(=O)n1CC#Cc1ccc(Cl)cc1-c1ccnc2c(C(=O)O)csc12` [compound 1523], for which the IC50 under setting [3] was 13.1 nM.
On to `COC(=O)c1csc2c(-c3cc(Cl)ccc3C#CCn3c(C)nc4cnc(N5CCN(CCOC(F)(F)F)CC5)c(C#N)c4c3=O)ccnc12` [compound 1104], for which the IC50 is, setting by setting: under setting [1], 50 to 1000 nM; under setting [2], 631 nM.
Turning to `N#Cc1cc(C(F)(F)F)cc2ncn(CCOc3ccc(Cl)cc3-c3cccc(C(=O)O)c3)c(=O)c12` [compound 1994], the IC50 under setting [3] was 41.8 nM.
As for `N#Cc1cc2c(=O)n(CCCc3ccc(Cl)cc3-c3cccc(C(=O)O)c3)cnc2cn1` [compound 42], the IC50 reads like this: under setting [1], greater than 1000 nM; under setting [2], 19800 nM.
In the case of `CC(=O)c1csc2c(-c3cc(Cl)ccc3C#CCn3c(C)nc4cc(C(F)(F)F)c(N5CC6(C5)CN(C5CC5)C6)c(C#N)c4c3=O)ccnc12` [compound 1178], the IC50 is, setting by setting: under setting [1], less than 50 nM; under setting [2], 22.9 nM.
In the case of `COC(=O)c1csc2c(-c3cc(Cl)ccc3C#CCn3c(C)nc4cnc(N(C)C5CCN(CC(C)(F)F)CC5)c(C#N)c4c3=O)ccnc12` [compound 980], the IC50 was less than 50 nM under setting [1] and 15.6 nM under setting [2].
`Cc1nc2cnc(N(C)C3CCN(CC(F)(F)F)CC3)c(C#N)c2c(=O)n1CC#Cc1ccc(Cl)cc1-c1ccnc2c(C(=O)O)csc12` [compound 1140]: the IC50 runs as follows: under setting [1], less than 50 nM; under setting [2], 6.14 nM.
On to `Cc1nc2cc(F)cc(C#N)c2c(=O)n1CCOc1ccc(Cl)cc1-c1ccnc2c(C(=O)O)csc12` [compound 1937], for which, under setting [3], the IC50 was 38.2 nM.
On to `Cc1nc2cc(C(F)(F)F)c(N3CC4(C3)CN(C3CC3)C4)c(C#N)c2c(=O)n1CCCc1ccc(Cl)cc1-c1ccnc2c(C(=O)O)csc12` [compound 1158], for which the IC50 is, setting by setting: under setting [1], less than 50 nM; under setting [2], 15.8 nM.
For `Cc1nc2cc(C(F)(F)F)cc(C#N)c2c(=O)n1CCOc1ccc(Cl)cc1-c1csc2c(C(=O)O)csc12` [compound 203], the IC50 by setting is: under setting [1], 50 to 1000 nM; under setting [2], 80.6 nM.
As to `Cc1nc2cc(C(F)(F)F)cc(C#N)c2c(=O)n1CCOc1ccc(Cl)cc1-c1ccnc2c(C(=O)NS(C)(=O)=O)csc12` [compound 569], the IC50 is, setting by setting: under setting [1], less than 50 nM; under setting [2], 2 nM.
For `Cc1nc2cc(C(F)(F)F)cc(C#N)c2c(=O)n1CCOc1ccc(Cl)cc1-c1ccnc2c(C(=O)O)csc12` [compound 61], the IC50 reads like this: under setting [1], less than 50 nM; under setting [2], 26.5 nM.
As to `N#Cc1c(C(F)F)ccc2nc(C(F)F)n(CCOc3ccc(Cl)cc3-c3ccnc4c(C(=O)O)csc34)c(=O)c12` [compound 188], the IC50 was 50 to 1000 nM under setting [1] and 63.2 nM under setting [2].
For the compound `Cc1cc2nc(C)n(CCOc3ccc(Cl)cc3-c3cc(C)nc4c(C(=O)O)csc34)c(=O)c2c(C#N)n1` [compound 685], the IC50 under setting [1] was less than 50 nM.
Consider `CCc1cc(-c2cc(Cl)ccc2OCCn2c(C)nc3cc(C(F)(F)F)c(N4CC5(C4)CN(C4CC4)C5)c(C#N)c3c2=O)c2scc(C(=O)O)c2n1` [compound 1931], for which, under setting [3], the IC50 is 19.7 nM.
On to `C=C1c2c(C#N)cc(C(F)(F)F)cc2N=C(C)N1CCOc1ccc(Cl)cc1-c1cc(CCO)nc2c(C(=O)O)csc12` [compound 595], for which the IC50 under setting [1] was less than 50 nM and the IC50 under setting [2] is 24.8 nM.
Consider `Cc1nc2cc(C#N)cc(C#N)c2c(=O)n1CC#Cc1ccc(Cl)cc1-c1ccnc2c(C(=O)O)csc12` [compound 258], for which the IC50 reads like this: under setting [1], less than 50 nM; under setting [2], 37.7 nM.
For `Cc1cc(-c2cc(Cl)ccc2OCCn2c(C)nc3cnc(C(F)F)c(C#N)c3c2=O)c2scc(C(=O)O)c2n1` [compound 914], the IC50 is less than 50 nM under setting [1] and 20.7 nM under setting [2].
`Cc1nc2cnc(C#N)cc2c(=O)n1CCOc1ccc(Cl)cc1-c1ccnc(C(=O)O)c1` [compound 134]: the IC50 by setting is: under setting [1], 50 to 1000 nM; under setting [2], 116 nM.
On to `Cc1ccc(N(C)c2c(Cl)cc3nc(C)n(CCOc4ccc(Cl)cc4-c4cc(C)nc5c(C(=O)O)csc45)c(=O)c3c2C#N)cn1` [compound 959], for which the IC50 was less than 50 nM under setting [1] and 14.8 nM under setting [2].
